± gives the standard deviation of the averaged measurements.
What was measured:
Test in all cases: level (log10 ratio to DMSO vehicle control); higher = higher biomarker level / cell amount than vehicle control
[1] = compound: C=C(C)C(=O)OCCC(F)(F)C(F)(F)C(F)(F)C(F)(F)C(F)(F)C(F)(F)F [6:2 Fluorotelomer methacrylate]; conditions: in DMSO
Experimental: (§1)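 BioMAP Diversity Plus panel of 12 human primary cell co-culture systems (3C, 4H, LPS, SAg, BT, BF4T, BE3C, CASM3C, HDF3CGF, KF3CT, MyoF, Mphg). Compounds were added 1 h before stimulation and left for 24 h (MyoF 48 h; BT 72 h for soluble read-outs or 6 d for IgG). Biomarkers were read by ELISA, cytotoxicity by SRB, PBMC viability and proliferation by Alamar Blue. Each well value was divided by the mean of 8 DMSO control wells on the same plate and log10 transformed; duplicate blinded samples were tested at 4 concentrations.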

[2] = compound: C=CC(=O)OCC(F)(F)C(F)(F)C(F)(F)COC(=O)C=C [1H,1H,5H,5H-Perfluoro-1,5-pentanediol diacrylate]; conditions: 6700 nM; in DMSO
Experimental: as §1

[3] = compound: COC(=O)C(F)(F)C(F)(F)OC(F)(C(F)(F)F)C(F)(F)OC(F)=C(F)F [Methyl perfluoro(3-(1-ethenyloxypropan-2-yloxy)propanoate)]; conditions: in DMSO
Experimental: as §1

[4] = compound: FC(F)(F)C(F)(F)C(F)(F)C(F)(F)C(F)(F)C(F)(F)C(F)(F)I [1-Iodopentadecafluoroheptane]; conditions: in DMSO
Experimental: as §1

[5] = compound: FC(F)(F)C(F)(F)C(F)(F)C(F)(F)C(F)(F)C(F)(F)CC1CO1 [3-(Perfluorohexyl)-1,2-epoxypropane]; conditions: in DMSO
Experimental: as §1

[6] = compound: FC(F)(F)C(F)(F)C(F)(F)CC1CO1 [1H,1H-Heptafluorobutyl epoxide]; conditions: in DMSO
Experimental: as §1

Heptafluorobutyl iodide = compound: FC(F)(F)C(F)(F)C(F)(F)CI [Heptafluorobutyl iodide]; conditions: in DMSO
Experimental: as §1

[7] = compound: FC(F)(F)C(F)(F)CNCC(F)(F)C(F)(F)F [Bis(1H,1H-perfluoropropyl)amine]; conditions: in DMSO
Experimental: as §1

Octafluoroadipamide = compound: NC(=O)C(F)(F)C(F)(F)C(F)(F)C(F)(F)C(N)=O [Octafluoroadipamide]; conditions: in DMSO
Experimental: as §1

Nonafluoropentanamide = compound: NC(=O)C(F)(F)C(F)(F)C(F)(F)C(F)(F)F [Nonafluoropentanamide]; conditions: in DMSO
Experimental: as §1

[8] = compound: NC(=O)C(F)(F)C(F)(F)C(F)(F)C(F)F; conditions: in DMSO
Experimental: as §1

[9] = compound: NS(=O)(=O)C(F)(F)C(F)(F)C(F)(F)C(F)(F)C(F)(F)C(F)(F)F [Perfluorohexanesulfonamide]; conditions: in DMSO
Experimental: as §1

[10] = compound: O=C(O)C(F)(F)C(F)(F)C(F)(F)C(F)(F)C(F)(F)C(F)(F)C(F)(F)C(F)(F)C(F)(F)C(F)F [11-H-Perfluoroundecanoic acid]; conditions: in DMSO
Experimental: as §1

[11] = compound: O=C(O)C=CC(F)(C(F)(F)F)C(F)(F)F [3-(Perfluoroisopropyl)-2-propenoic acid]; conditions: in DMSO
Experimental: as §1

[12] = compound: O=S(=O)(Cl)C(F)(F)C(F)(F)C(F)(F)C(F)(F)C(F)(F)C(F)(F)C(F)(F)C(F)(F)F [Perfluoro-1-octanesulfonyl chloride]; conditions: in DMSO
Experimental: as §1

[13] = compound: O=S(=O)(F)C(F)(F)C(F)(F)C(F)(F)C(F)(F)C(F)(F)C(F)(F)C(F)(F)C(F)(F)F [Perfluorooctanesulfonyl fluoride]; conditions: in DMSO
Experimental: as §1

[14] = compound: O=S(=O)(O)C(F)(F)C(F)(F)C(F)(F)C(F)(F)C(F)(F)C(F)(F)C(F)(F)C(F)(F)C(F)(F)C(F)(F)F [Sodium perfluorodecanesulfonate]; conditions: in DMSO
Experimental: as §1

[15] = compound: O=S(=O)(O)CCC(F)(F)C(F)(F)C(F)(F)C(F)(F)C(F)(F)C(F)(F)F [6:2 Fluorotelomer sulfonic acid]; conditions: in DMSO
Experimental: as §1

Hexafluoroamylene glycol = compound: OCC(F)(F)C(F)(F)C(F)(F)CO [Hexafluoroamylene glycol]; conditions: in DMSO
Experimental: as §1

4H:VEGFR2
level (log10) ([1]; 6700 nM): -0.047 ± 0.034
level (log10) ([1]; 20000 nM): -0.0305 ± 0.00071
level (log10) ([1]; 60000 nM): -0.0265 ± 0.039
level (log10) [2]: -0.0225 ± 0.035
level (log10) ([3]; 6700 nM): -0.008 ± 0.014
level (log10) ([3]; 20000 nM): 0.006 ± 0.034
level (log10) ([4]; 6700 nM): 0.0055 ± 0.0092
level (log10) ([4]; 20000 nM): 0.06 ± 0.024
level (log10) ([5]; 6700 nM): -0.0015 ± 0.019
level (log10) ([5]; 20000 nM): 0.0235 ± 0.011
level (log10) ([5]; 60000 nM): 0.017 ± 0.014
level (log10) ([6]; 6700 nM): -0.012 ± 0.0071
level (log10) ([6]; 20000 nM): 0 ± 0.017
level (log10) ([6]; 60000 nM): 0.031 ± 0.11
level (log10) (Heptafluorobutyl iodide; 6700 nM): -0.0075 ± 0.005
level (log10) (Heptafluorobutyl iodide; 20000 nM): 0.0155 ± 0.063
level (log10) (Heptafluorobutyl iodide; 60000 nM): 0.0445 ± 0.036
level (log10) ([7]; 6700 nM): 0.0065 ± 0.028
level (log10) ([7]; 20000 nM): 0.0135 ± 0.023
level (log10) ([7]; 60000 nM): -0.009
level (log10) (Octafluoroadipamide; 6700 nM): 0.012 ± 0.05
level (log10) (Octafluoroadipamide; 20000 nM): 0.025 ± 0.0057
level (log10) (Octafluoroadipamide; 60000 nM): 0.0225 ± 0.03
level (log10) (Nonafluoropentanamide; 6700 nM): -0.0435 ± 0.0078
level (log10) (Nonafluoropentanamide; 20000 nM): -0.0135 ± 0.029
level (log10) (Nonafluoropentanamide; 60000 nM): -0.015
level (log10) ([8]; 6700 nM): 0 ± 0.0042
level (log10) ([8]; 20000 nM): -0.006 ± 0.0099
level (log10) ([8]; 60000 nM): -0.001 ± 0.054
level (log10) ([9]; 6700 nM): -0.008 ± 0.023
level (log10) ([9]; 20000 nM): -0.023 ± 0.013
level (log10) ([9]; 60000 nM): -0.0965 ± 0.022
level (log10) ([10]; 6700 nM): -0.0245 ± 0.032
level (log10) ([10]; 20000 nM): 0.001 ± 0.047
level (log10) ([11]; 6700 nM): -0.0145 ± 0.019
level (log10) ([11]; 20000 nM): 0.004 ± 0.05
level (log10) ([11]; 60000 nM): 0.01 ± 0.045
level (log10) ([12]; 6700 nM): 0.0185 ± 0.019
level (log10) ([12]; 20000 nM): 0.014 ± 0.0085
level (log10) ([12]; 60000 nM): 0.0265 ± 0.0078
level (log10) ([13]; 6700 nM): -0.001 ± 0.03
level (log10) ([13]; 20000 nM): -0.01 ± 0.021
level (log10) ([13]; 60000 nM): 0 ± 0.027
level (log10) ([14]; 1500 nM): 0.003 ± 0.013
level (log10) ([14]; 4400 nM): -0.03 ± 0.059
level (log10) ([14]; 13000 nM): -0.02 ± 0.073
level (log10) ([14]; 40000 nM): 0.024 ± 0.047
level (log10) ([15]; 6700 nM): -0.0215 ± 0.012
level (log10) ([15]; 20000 nM): -0.101 ± 0.0064
level (log10) ([15]; 60000 nM): -0.026 ± 0.021
level (log10) (Hexafluoroamylene glycol; 6700 nM): -0.061 ± 0.023
level (log10) (Hexafluoroamylene glycol; 20000 nM): -0.032 ± 0.013
level (log10) (Hexafluoroamylene glycol; 60000 nM): -0.0255 ± 0.0021

BE3C:HLA-DR
level (log10) ([1]; 6700 nM): 0.0015 ± 0.016
level (log10) ([1]; 20000 nM): -0.0065 ± 0.0064
level (log10) ([1]; 60000 nM): 0.0125 ± 0.005
level (log10) [2]: -0.0175 ± 0.028
level (log10) ([3]; 6700 nM): -0.0235 ± 0.042
level (log10) ([3]; 20000 nM): -0.0275 ± 0.032
level (log10) ([4]; 6700 nM): 0.0035 ± 0.0021
level (log10) ([4]; 20000 nM): 0.0015 ± 0.0078
level (log10) ([5]; 6700 nM): 0 ± 0.0099
level (log10) ([5]; 20000 nM): -0.0025 ± 0.011
level (log10) ([5]; 60000 nM): 0.006 ± 0.017
level (log10) ([6]; 6700 nM): 0.002 ± 0.013
level (log10) ([6]; 20000 nM): -0.0075 ± 0.012
level (log10) ([6]; 60000 nM): -0.01 ± 0.025
level (log10) (Heptafluorobutyl iodide; 6700 nM): -0.0055 ± 0.0064
level (log10) (Heptafluorobutyl iodide; 20000 nM): -0.022 ± 0.024
level (log10) (Heptafluorobutyl iodide; 60000 nM): -0.0035 ± 0.018
level (log10) ([7]; 6700 nM): -0.0025 ± 0.012
level (log10) ([7]; 20000 nM): -0.0115 ± 0.0021
level (log10) ([7]; 60000 nM): 0.012 ± 0.031
level (log10) (Octafluoroadipamide; 6700 nM): -0.003 ± 0.0014
level (log10) (Octafluoroadipamide; 20000 nM): -0.0015 ± 0.00071
level (log10) (Octafluoroadipamide; 60000 nM): 0.0175 ± 0.037
level (log10) (Nonafluoropentanamide; 6700 nM): -0.005 ± 0.0042
level (log10) (Nonafluoropentanamide; 20000 nM): -0.016 ± 0.0071
level (log10) (Nonafluoropentanamide; 60000 nM): -0.016 ± 0.0057
level (log10) ([8]; 6700 nM): 0.0065 ± 0.016
level (log10) ([8]; 20000 nM): 0.008 ± 0.0057
level (log10) ([8]; 60000 nM): -0.0025 ± 0.023
level (log10) ([9]; 6700 nM): -0.01 ± 0.0042
level (log10) ([9]; 20000 nM): -0.032 ± 0.018
level (log10) ([9]; 60000 nM): -0.0685 ± 0.018
level (log10) ([10]; 6700 nM): -0.0645 ± 0.005
level (log10) ([10]; 20000 nM): -0.669 ± 0.0085
level (log10) ([11]; 6700 nM): -0.0075 ± 0.013
level (log10) ([11]; 20000 nM): 0.0035 ± 0.015
level (log10) ([11]; 60000 nM): 0.0095 ± 0.018
level (log10) ([12]; 6700 nM): -0.006 ± 0.025
level (log10) ([12]; 20000 nM): -0.041 ± 0.014
level (log10) ([12]; 60000 nM): -0.642 ± 0.14
level (log10) ([13]; 6700 nM): -0.0105 ± 0.012
level (log10) ([13]; 20000 nM): -0.0125 ± 0.011
level (log10) ([13]; 60000 nM): -0.01 ± 0.011
level (log10) ([14]; 1500 nM): 0.0005 ± 0.013
level (log10) ([14]; 4400 nM): -0.02 ± 0.014
level (log10) ([14]; 13000 nM): -0.0755 ± 0.032
level (log10) ([14]; 40000 nM): -0.406 ± 0.041
level (log10) ([15]; 6700 nM): -0.0135 ± 0.021
level (log10) ([15]; 20000 nM): -0.0175 ± 0.012
level (log10) ([15]; 60000 nM): -0.024 ± 0.0099
level (log10) (Hexafluoroamylene glycol; 6700 nM): -0.0155 ± 0.0092
level (log10) (Hexafluoroamylene glycol; 20000 nM): -0.017 ± 0.014
level (log10) (Hexafluoroamylene glycol; 60000 nM): -0.019 ± 0.024
